Columns and labels:
cannabinoid receptors = biological target: T1, cannabinoid receptors (Mus musculus, UniProt P47746); experiment: antagonism of hypothermia induced by WIN 55 212-2 in mice; assay type: in vivo
T1 construct: from tissue; host or cells: whole living mouse (in vivo hypothermia test)

rats = experiment: test of the central memory in rats (Perio et al.); assay type: in vivo; conditions: subcutaneous administration
[1] = penetration of the blood-brain barrier / central nervous system; assay type: in vivo

T1 sequence (P47746 whole entry): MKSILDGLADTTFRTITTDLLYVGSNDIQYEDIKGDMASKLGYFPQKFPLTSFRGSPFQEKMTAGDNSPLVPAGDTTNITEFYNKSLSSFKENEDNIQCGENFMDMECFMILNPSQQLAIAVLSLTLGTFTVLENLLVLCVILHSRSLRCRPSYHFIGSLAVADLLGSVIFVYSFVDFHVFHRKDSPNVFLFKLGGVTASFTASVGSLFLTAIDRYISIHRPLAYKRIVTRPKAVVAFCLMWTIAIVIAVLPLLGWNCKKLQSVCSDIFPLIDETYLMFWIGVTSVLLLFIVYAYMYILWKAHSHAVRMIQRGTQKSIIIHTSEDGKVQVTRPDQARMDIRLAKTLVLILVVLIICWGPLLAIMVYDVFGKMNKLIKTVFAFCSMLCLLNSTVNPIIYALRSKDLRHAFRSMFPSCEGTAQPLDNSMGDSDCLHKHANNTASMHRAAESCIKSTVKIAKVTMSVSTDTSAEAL

Cc1c(C(=O)NN2CCCCC2)nn(-c2ccc(Cl)cc2Cl)c1-c1ccc(Cl)cc1 [N-piperidino-5-(4-chlorophenyl)-1-(2,4-dichlorophenyl)-4-methyl-pyrazole-3-carboxamide]
duration of action in the hypothermia test (cannabinoid receptors; mice, after oral administration of 3 mg/kg): 8 to 10 h
ED50, antagonism of WIN 55 212-2 induced hypothermia (cannabinoid receptors; mice, i.p.): 0.3 mg/kg
ED50, antagonism of WIN 55 212-2 induced hypothermia (cannabinoid receptors; mice, per os): 0.4 mg/kg
activity upon oral administration (cannabinoid receptors; oral): active upon oral administration
memory capacities of rats in the test of the central memory (rats): improves the memory capacities of rats
penetration in the central nervous system ([1]; confirmed by antagonism of agonist-induced hypothermia): good penetration
penetration of the blood-brain barrier ([1]; in vivo): penetrates the blood-brain barrier
toxicity (toxicity): compatible with its use as a psychotropic drug
